The values below come from US20230172901A1, “COMPOSITIONS AND METHODS FOR THE PROPHYLAXIS AND TREATMENT OF FIBROTIC AND INFLAMMATORY CONDITIONS” (GRETALS AUSTRALIA PTY LTD, priority 2020, published 2023).

Entries after “also recorded” stand apart in the source; their conditions may differ.

Holding throughout (assay type): in vivo
For data set [1], the system named is sheep model of lung disease, bleomycin-induced lung damage. Briefly: Example 1: bleomycin sheep pulmonary model, lung function, inflammation and fibrosis (3 sheep). The text has this:
In animal models, bleomycin is the most widely used agent to characterise pulmonary fibrosis. In the sheep model, intratracheal administrations of two doses of bleomycin is used to induce fibrosis in the lung parenchyma. The overall study protocol is shown at FIG. 1.
For this example, three female merino sheep aged between 9 months and 1 year were utilised. Animals were housed indoors and received anthelminthic to treat for any existing parasitic disease. The sheep were judged to be free from significant pulmonary disease on the basis of clinical examination before the commencement of experiments and on inspection of gross pathology at autopsy. The Animal Experimentation Ethics Committee of the University of Melbourne, which adheres to the Australian Code of Practice for the care and use of laboratory animals for scientific purposes, approved all experimental procedures outlined below.
Bleomycin sulphate was made up at a concentration of 0.6 U bleomycin/mL saline and administered to the left and right caudal lobes at a rate of 3 U per segment to cause injury to the tissue and trigger fibrosis. For the left caudal lobe, 7 mg of pinocembrin in 10% DMSO was administered to test the efficacy of pinocembrin in the treatment or prevention of bleomycin-induced fibrosis. For the right caudal lobe injury was induced by bleomycin, and DMSO alone administered such that any differential effects between the left and right caudal lobes could be attributed to the pinocembrin.
A saline solution was administered to the right medial lobe, as a sham treatment.
Each of the bleomycin, bleomycin/pinocembrin, and saline compositions was administered via the biopsy port of a fibre-optic bronchoscope to the appropriate lung segments as a 5 ml bolus.
Timing of the administration of the various compositions is summarised at FIG. 1, with all three sheep euthanized at week 12.
The sheep were euthanized by an intravenous overdose of barbiturate (Lethabarb, Veterinary Clinic, University of Melbourne, Werribee, Australia) at week 12 as outlined in FIG. 1 for tissue collection and analysis.
Following euthanasia, the lungs were removed and targeted lung segments identified and carefully dissected free from surrounding tissue. Individual segments were then inflated with a 1:1 mixture of OCT and sterile PBS solution. […]
Segmental compliance (Cseg) was assessed using pressure responses to flow in the different segments as indicated FIG. 2 in awake, consciously breathing sheep using a wedged-bronchoscope technique. […]
Segmental lung compliance was calculated. […] Segmental compliance was then calculated from the pressure-flow decay curve generated from this procedure. The process was repeated 3 times for each segment and expressed as an average value for Cseg. […]

The test system of data set [2] is sheep model for pulmonary fibrosis, bleomycin-injured lung segments. Briefly: Example 2: CD4+ and CD8+ T cells in lung parenchyma (immunohistochemistry). From the text:
In this study, a total of 10 sheep were used. Fibrosis in two lung segments of each sheep in a similar manner as performed in Example 1 herein. Using this procedure (as detailed further below) the fibrosis was confined to small, isolated regions in the lungs leaving the remaining 90-95% of the healthy unaffected lungs to undertake normal respiratory function.
All sheep (n=10) in the study were challenged with 2 single doses of bleomycin (3 units) per lung segment, a fortnight apart and the animals were kept for a little over 5 weeks after the final bleomycin dose. Bleomycin is a well-known agent for inducing fibrosis in the lungs. The administration procedure involves inserting a bronchoscope into lung segments in the right and left lung, and then slowly infusing the bleomycin into two segments as shown in FIG. 2 via the bronchoscope biopsy port.
(§1) In the study detailed in Example 1 herein, the dose-rate of pinocembrin was 7 mg pinocembrin per sheep, per week.
For control purposes the lung segment in the opposite lung was used as a bleomycin-positive, without drug, control, as indicated in FIG. 1. The bioactive molecules in vehicle, were delivered as 5 ml infusions through the biopsy port of the bronchoscope. Note that to nullify any small differences (e.g. physiological or anatomical etc.) between the left and right lungs, the infusions of pinocembrin were randomized between the left and right caudal lung segments. Half the animals (5 sheep) received pinocembrin to the right caudal lung segments, while the other 5 sheep received pinocembrin to the left caudal lung segments. The right medial lung segment was left untreated and used for healthy lung control tissue which was sampled at autopsy (FIG. 2). […]
Immunohistochemistry was performed on these frozen tissue sections using the indirect immunoperoxidase technique. […] For cell counts, either 200 immunoperoxidase positive cells were counted in a maximum of 20 microscope fields (×400 magnification) using an area-calibrated grid, or a minimum of 20 microscope fields were counted for less frequent counts.

In a further data set the test system is sheep. The data set can be described thus: Example 2: animal health and safety of pinocembrin administration. As to the method: as §1
For control purposes the lung segment in the opposite lung was used as a bleomycin-positive, without drug, control, as indicated in FIG. 1. The bioactive molecules in vehicle, were delivered as 5 ml infusions through the biopsy port of the bronchoscope. Note that to nullify any small differences (e.g. physiological or anatomical etc.) between the left and right lungs, the infusions of pinocembrin were randomized between the left and right caudal lung segments. Half the animals (5 sheep) received pinocembrin to the right caudal lung segments, while the other 5 sheep received pinocembrin to the left caudal lung segments. The right medial lung segment was left untreated and used for healthy lung control tissue which was sampled at autopsy (FIG. 2).
The sheep were bled at the times indicated in FIG. 1 by sampling 10 ml of blood from the jugular vein into a tube containing heparin. The blood was processed for blood cell count analyses.
Health checks were routinely performed throughout the treatment periods and throughout the trial until euthanasia.

The mark [3] stands for this setting: 7 mg pinocembrin in 10% DMSO, 4 weekly doses, left vs right caudal segment.
Where [4] appears, read: week 12 post-mortem, vs bleomycin alone, 4 weekly infusions of 7 mg, n=10 sheep.
Setting [5] is: pinocembrin treatment period, 10 sheep.
Where [6] appears, read: throughout the pinocembrin treatment period, 10 sheep.

With `O=C1CC(c2ccccc2)Oc2cc(O)cc(O)c21` (stereo not drawn) [pinocembrin, 5,7-Dihydroxy-2-Phenyl-2,3-Dihydro-4H-Chromen-4-One], the “beneficial effect of pinocembrin (significance, number of sheep)” value in data set [1] is “statistically significant and noted in all three sheep”. Also, the lung function result in data set [1] (7 mg pinocembrin in 10% DMSO, 4 weekly doses, bleomycin-injured left caudal segment vs right caudal segment (bleomycin + DMSO)) was “improvement”. In addition, in data set [1] (setting [3]), the fibrosis result is reported as “decrease” and the inflammation entry is “decrease”. The “sheep with lower CD8+ and CD4+ T cells after pinocembrin treatment” value in data set [2] (individual sheep data, 10 sheep) is given as “All sheep”. In addition, in data set [2] (setting [4]), the “numbers of CD4+ T cells in the lung parenchyma” value is recorded as “significantly lower; also recorded: significant reduction” and the “numbers of CD8+ T cells in the lung parenchyma” value is “significantly lower; also recorded: significant reduction”. In the data set with sheep (all ten sheep undergoing the trial), the “untoward health effects (clinical assessment criteria)” value is listed as “no untoward health effects”. Further, the “differential counts of blood leukocytes” value in the data set on sheep (both sampling time points, 10 sheep) is listed as “within normal ranges”. In addition, the “additional pathology or lung damage in pinocembrin exposed segments” value in the data set on sheep (lung segment exposed to pinocembrin, post-mortem) is “no obvious signs of additional pathology or lung damage”. Moreover, in the data set with sheep (setting [5]), the adverse health events entry is listed as “no otherwise adverse health events” and the weight gain entry is “expected normal range”. Moreover, in the data set on sheep (setting [6]), the core temperature readings result is “within the normal range”; the “heart, and respiratory rates” value was “within normal ranges”. The “animal health during treatment period” value in the data set with sheep (week 8 to week 12, 7 mg per sheep per week into one lung segment, 10 sheep) is “remained healthy”.
